# Laboratory results as given in patent publication US20240279201A1, “DUAL WNT SIGNALING PATHWAY INHIBITORS AND AMPK ACTIVATORS FOR TREATMENTS OF DISEASE” (priority 2021, published 2024).
# How the values were obtained:
# [1] = system: TGF-β-treated LX-2 cells; experiment: Anti-fibrotic efficacy in TGF-β-treated LX-2 cells; type: cell-based; details: 24 hours
# Procedure: FIG. 9A-FIG. 9C illustrate the anti-fibrotic efficacy of YA6060 in LX-2 cells. LX-2 cells were exposure to TGF-beta with and without different concentrations of YA6060 for 24 hours. FIG. 9A is a gel illustrating Western blot results. FIG. 9B and FIG. 9C are graphs of experimental data illustrating RT-PCR results. FIG. 14A-FIG. 14C illustrate the anti-fibrotic efficacy of YA6060 in LX-2 cells. The effect of YA6060 treatment on the expression of fibrotic markers in LX-2 cells was examined. LX-2 cells were treated with TGF-beta to model fibrosis. FIG. 14A is an image of a Western blot illustrating protein expression of collagen 1, vimentin, and alpha-SMA. […] FIG. 14C is a graph of experimental data illustrating mRNA expression of genes associated with inflammation by RT-PCR. The cells were treated with the indicated concentrations of YA6060 for 24 hours. *P<0.05, **P<0.01. […] The effect of YA6060 treatment on the expression of fibrotic markers in LX-2 cells was examined. LX-2 cells were treated with TGF-beta to model fibrosis. Protein expression of collagen 1, vimentin, and alpha-SMA by Western blotting (FIG. 14A). mRNA expression of collagen 1, vimentin, and alpha-SMA by RT-PCR was examined (FIG. 14B). mRNA expression of genes associated with inflammation by RT-PCR was examined (FIG. 14C). The cells were treated with the indicated concentrations of YA6060 for 24 hours. *P<0.05, **P<0.01. […]
# [2] = target: Axin 1 (Homo sapiens (Human), UniProt O15169); experiment: Western blotting of Axin 1 in HEK293 cells; type: cell-based; details: 100 nM, 24 h
# Procedure: FIG. 6A-FIG. 6E illustrate the development of Axin stabilizers with dual activities of Wnt inhibition and AMPK activation. […] HEK293 cells were used. B&C: 100 nM compounds, 24 h. FIG. 6D is a table showing the activity profile of YA6060. F=bioavailability; soubility is aqueous solubility.
# A dual-luciferase gene reporter assay was used to test inhibitory activities of new compounds on Wnt signaling. […] Axin is also reported to form a complex with AMPK and its upstream kinase LKB1 (FIG. 12A and FIG. 12B) to facilitate AMPK activation. Therefore, the effects of new compounds on AMPK was examined. […] YA6060 and its analogs had dual activities of potent Wnt signaling inhibition and AMPK activation, which were dependent on the levels of scaffolding protein Axin.
# [3] = Hygroscopicity; type: physicochemical; details: HCl salt
# Excerpt: This Example provides evidence to access the therapeutic potential of simultaneously targeting Wnt signaling and AMPK pathways as novel anti-CRC therapeutic strategy. […] In addition, the chemical structure of YA6060 contains multiple C—H bonds that are liable to P450-mediated oxidations in the liver. Therefore, novel YA6060 analogs with acceptable non-hygroscopicity along with excellent metabolic stability are highly desirable for its further development.
# Non-hygroscopic salts of YA6060. YA6060 is an HCl salt with high hygroscopicity. YA6060 can readily absorb moisture from the environment that limits the stability and the further therapeutic application of the compound. Non-hygroscopic salts of YA6060 are generated by screening the anionic of the neutral amino parent YA6060 with a panel of acids that has been reported to form acceptably non-hygroscopic salts. Specific acids include valproic (1), maleic (2), tartaric (3), oxalic (4) and pamoic (5) acids, to get the corresponding salts.
# [4] = Cytotoxicity (CC50) during the luciferase gene reporter assay; type: cell-based; details: human, HEK293 cells; short treatment duration of the luciferase gene reporter assay
# [5] = Pharmacokinetic (PK) studies, oral dose; details: C57/BL6, mouse, blood, 5 mg/kg
# Procedure: (§1) The ADMET and PK properties of YA6060 was determined.
# PK/Tox. The four selected compounds from in vitro evaluation above are subjected to PK and toxicity assessment in C57/BL6 mice. […] Compound concentrations is determined by LC/MS/MS. PK analysis is carried out on Phoenix Winnolin using non-compartmental analysis and compartment models. Compound accumulation in major tissues, including liver, kidney, heart, brain and intestine, are quantified. […] For study ii, a half number of mice per group are sacrificed immediately after the 3-week course and the remaining after a 2-week washout period to assess delayed toxicity. In toxicity studies, blood is collected upon euthanasia for liver and renal chemistries and complete blood counts, and major organs harvested and examined macro- and microscopically by veterinarian pathologists. It is expected that an understanding of PK properties, such as bioavailability, AUC, clearance, and toxic effects, such as general tolerance and specific toxicity in the liver, kidney, other major organs, and particularly Wnt-dependent tissues, such as intestine, stomach, and skin is established for these selected compounds.
# [6] = physchem
# Procedure: as §1
# Determination of physiochemical properties. The profiles of six selected analogs is estimated in silico, and selected Axin stabilizers are evaluated in in vitro assays: the aqueous solubility is determined using a multiscreen solubility filter plate (Millipore, Billerica, MA) coupled with LC-MS/MS, as performed for the already synthesized YA6060 analogs; the cell viability assays on selected analogs is measured using HEK293 cells; the intestinal permeability by determining the transport from the apical to the basolateral (A to B) in Caco-2 monolayers; the metabolic stability by incubating the compounds with mouse microsomes and liver tissue S9 fraction and analyzing by LC-MS/MS.
smiles,measurement,setting,value
Cc1ccccc1-n1nnc(C(=O)Nc2ccc3cc(CN4CCNCC4)ccc3n2)c1C [YA6060],expression of fibrosis and inflammation markers,[1],significantly reduced the expression of fibrosis markers
same,level of Axin 1,[2],stabilizing
same,hygroscopicity,[3],highly hygroscopic
same,CC50,[4],> 92 µM
same,half-life,[5]; oral,2.67 h
same,Cmax,[5]; po,24000 ng/mL
same,Tmax,[5]; po,1.6 h
same,bioavailability,[5]; po,75%
same,half-life,[5]; po,2.67 h
same,aqueous solubility,[6],> 75 mg/mL
same,increase in aqueous solubility from FX1128 and FX2065,[6],"over 10,000 fold"
same,solubility,"[6]; water, aqueous solubility",> 78 mg/mL
